According to patent US8063028B2, “Heterocyclic antiviral compounds” (Roche Palo Alto LLC, priority 2007, dated 2011):
Counter-ions that a name gives are not always drawn.

target: HIV-1 RT (Human immunodeficiency virus type 1 group M subtype B, UniProt P04585); assay: HIV reverse transcriptase assay, inhibitor IC50 determination; type: biochemical; conditions: purified recombinant enzyme, poly(rA)/oligo(dT)16 template-primer, 37° C. 30 min
Experimental: Reactions were initiated by adding 4 nM HIV-1 RT and after incubation at 37° C. for 30 min, they were stopped by the addition of 50 μl ice cold 20% TCA and allowed to precipitate at 4° C. for 30 min. The precipitates were collected by applying vacuum to the plate and sequentially washing with 3×200 μl of 10% TCA and 2×200 μl 70% ethanol. Finally, the plates were dried and radioactivity counted in a Packard TopCounter after the addition of 25 μl scintillation fluid per well. IC50's were calculated by plotting % inhibition versus log10 inhibitor concentrations. Representative IC50 data is depicted in TABLE 2.

Structure (SMILES)	IC50 [nM]
N#Cc1cc(Cl)cc(Oc2c(Br)ccc(Cc3nn(COC(=O)CCC(=O)O)c4nnccc34)c2F)c1 [Compound I-3, Succinic acid mono-{3-[4-bromo-3-(3-chloro-5-cyano-phenoxy)-2-fluoro-benzyl]-pyrazolo[3,4-c]pyridazin-1-ylmethyl}ester]	4.9
N#Cc1cc(Cl)cc(Oc2c(Cl)ccc(Cc3nn(COC(=O)CCC(=O)O)c4nnccc34)c2F)c1 [Compound I-5, Succinic acid mono-{3-[4-chloro-3-(3-chloro-5-cyano-phenoxy)-2-fluoro-benzyl]-pyrazolo[3,4-c]pyridazin-1-ylmethyl}ester]	7.4

test system: not given; assay: not given; conditions: not given

Structure (SMILES)	melting point [°C]
CC(CN(C)C)OC(=O)n1nc(Cc2ccc(Br)c(Oc3cc(Cl)cc(C#N)c3)c2F)c2ccnnc21 (centres unmarked) (as salt: hydrochloride) [Compound I-13, 3-[4-Bromo-3-(3-chloro-5-cyano-phenoxy)-2-fluoro-benzyl]-pyrazolo[3,4-c]pyridazine-1-carboxylic acid 2-dimethylamino-1-methyl-ethyl ester]	119 to 122
N#Cc1cc(Cl)cc(Oc2c(Br)ccc(Cc3nn(COC(=O)CCC(=O)O)c4nnccc34)c2F)c1 (as salt: sodium) [Compound I-3, Succinic acid mono-{3-[4-bromo-3-(3-chloro-5-cyano-phenoxy)-2-fluoro-benzyl]-pyrazolo[3,4-c]pyridazin-1-ylmethyl}ester]	172.6 to 173.9
N#Cc1cc(Cl)cc(Oc2c(Br)ccc(Cc3nn(COC(=O)CCC(=O)O)c4ncccc34)c2F)c1 [Compound I-1, Succinic acid mono-{3-[4-bromo-3-(3-chloro-5-cyano-phenoxy)-2-fluoro-benzyl]-pyrazolo[3,4-b]pyridin-1-ylmethyl}ester]	183 to 184
N#Cc1cc(C#N)cc(Oc2c(Br)ccc(Cc3nn(COC(=O)CCC(=O)O)c4nnccc34)c2F)c1 [Compound I-4, Succinic acid mono-{3-[4-bromo-3-(3,5-dicyano-phenoxy)-2-fluoro-benzyl]-pyrazolo[3,4-c]pyridazin-1-ylmethyl}ester]	175.2 to 176.5
N#Cc1cc(Cl)cc(Oc2c(Cl)ccc(Cc3nn(COC(=O)CCC(=O)O)c4nnccc34)c2F)c1 [Compound I-5, Succinic acid mono-{3-[4-chloro-3-(3-chloro-5-cyano-phenoxy)-2-fluoro-benzyl]-pyrazolo[3,4-c]pyridazin-1-ylmethyl}ester]	173 to 174.8
COC(=O)n1nc(Cc2ccc(Br)c(Oc3cc(Cl)cc(C#N)c3)c2F)c2ccnnc21 [Compound I-6, 3-[4-Bromo-3-(3-chloro-5-cyano-phenoxy)-2-fluoro-benzyl]-pyrazolo[3,4-c]pyridazine-1-carboxylic acid methyl ester]	164 to 165
N#Cc1cc(Cl)cc(Oc2c(Br)ccc(Cc3nn(COC(=O)CCCC(=O)O)c4nnccc34)c2F)c1 [Compound I-7, Pentanedioic acid mono-{3-[4-bromo-3-(3-chloro-5-cyano-phenoxy)-2-fluoro-benzyl]-pyrazolo[3,4-c]pyridazin-1-ylmethyl}ester]	149.8 to 150.7
CC(=O)OCn1nc(Cc2ccc(Br)c(Oc3cc(Cl)cc(C#N)c3)c2F)c2ccnnc21 [Compound I-8, Acetic acid 3-[4-bromo-3-(3-chloro-5-cyano-phenoxy)-2-fluoro-benzyl]-pyrazolo[3,4-c]pyridazin-1-ylmethyl ester]	71.1 to 73
CC(C)[C@H](N)C(=O)OCn1nc(Cc2ccc(Br)c(Oc3cc(Cl)cc(C#N)c3)c2F)c2ccnnc21.Cl [Compound I-9, (S)-2-Amino-3-methyl-butyric acid 3-[4-bromo-3-(3-chloro-5-cyano-phenoxy)-2-fluoro-benzyl]-pyrazolo[3,4-c]pyridazin-1-ylmethyl ester]	155 to 156
N#Cc1cc(Cl)cc(Oc2c(Br)ccc(Cc3nn(COC(=O)COCC(=O)O)c4nnccc34)c2F)c1 [Compound I-10, {3-[4-Bromo-3-(3-chloro-5-cyano-phenoxy)-2-fluoro-benzyl]-pyrazolo[3,4-c]pyridazin-1-ylmethoxycarbonylmethoxy}-acetic acid]	146 to 147
CCOC(=O)n1nc(Cc2ccc(Br)c(Oc3cc(Cl)cc(C#N)c3)c2F)c2ccnnc21 [Compound I-11, 3-[4-Bromo-3-(3-chloro-5-cyano-phenoxy)-2-fluoro-benzyl]-pyrazolo[3,4-c]pyridazine-1-carboxylic acid ethyl ester]	139 to 140
N#Cc1cc(C#N)cc(Oc2c(Cl)ccc(Cc3nn(COC(=O)CCC(=O)O)c4nnccc34)c2F)c1 [Compound I-12, Succinic acid mono-{3-[4-chloro-3-(3,5-dicyano-phenoxy)-2-fluoro-benzyl]-pyrazolo[3,4-c]pyridazin-1-ylmethyl}ester]	166.1 to 169.9
N#Cc1cc(Cl)cc(Oc2c(Cl)ccc(Cc3nn(COC(=O)CCCC(=O)O)c4nnccc34)c2F)c1 [Compound I-14, Pentanedioic acid mono-{3-[4-chloro-3-(3-chloro-5-cyano-phenoxy)-2-fluoro-benzyl]-pyrazolo[3,4-c]pyridazin-1-ylmethyl}ester]	176 to 178
N#Cc1cc(Cl)cc(Oc2c(Br)ccc(Cc3nn(COC(=O)CCCCC(=O)O)c4nnccc34)c2F)c1 [Compound I-15, Hexanedioic acid mono-{3-[4-bromo-3-(3-chloro-5-cyano-phenoxy)-2-fluoro-benzyl]-pyrazolo[3,4-c]pyridazin-1-ylmethyl}ester]	159 to 160
CC(=O)n1nc(Cc2ccc(Br)c(Oc3cc(Cl)cc(C#N)c3)c2F)c2ccnnc21 [Compound I-16, 3-[3-(1-Acetyl-1H-pyrazolo[3,4-c]pyridazin-3-ylmethyl)-6-bromo-2-fluoro-phenoxy]-5-chloro-benzonitrile]	195.5 to 196.9
N#Cc1cc(Cl)cc(Oc2c(Br)ccc(Cc3nn(C(=O)c4cccnc4)c4nnccc34)c2F)c1 [Compound I-17, 3-{6-Bromo-2-fluoro-3-[1-(pyridine-3-carbonyl)-1H-pyrazolo[3,4-c]pyridazin-3-ylmethyl]-phenoxy}-5-chloro-benzonitrile]	187.7 to 188.5
CC(C)OC(=O)n1nc(Cc2ccc(Br)c(Oc3cc(Cl)cc(C#N)c3)c2F)c2ccnnc21 [Compound I-20, 3-[4-Bromo-3-(3-chloro-5-cyano-phenoxy)-2-fluoro-benzyl]-pyrazolo[3,4-c]pyridazine-1-carboxylic acid isopropyl ester]	166.1 to 166.9
CC(C)C(=O)n1nc(Cc2ccc(Br)c(Oc3cc(Cl)cc(C#N)c3)c2F)c2ccnnc21 [Compound I-21, 3-[6-Bromo-2-fluoro-3-(1-isobutyryl-1H-pyrazolo[3,4-c]pyridazin-3-ylmethyl)-phenoxy]-5-chloro-benzonitrile]	157.7 to 159.3
